Reference: patent US12667568B2, “Compositions and methods for the treatment and diagnosis of cancer” (The General Hospital Corporation, priority 2020, dated 2026)

Tests used:
[1] = system: SKOV3 subcutaneous xenograft tumors; experiment: SKOV3 xenograft with Cisplatin; format: in vivo, BALB/c nude mice; conditions: Cisplatin 5 mg/kg into tumor twice per week for 3 weeks, Lv-shTRDMT1 versus Lv-NC
Description: FIGS. 5A-5E show reduced TRDMT1 expression renders Cisplatin sensitization in vivo. (FIG. 5A) Lv-shTRDMT1 or Lv-NC transfected SKOV3 cells were subcutaneously injected into BALB/c nude mice, a week after injection, Cisplatin (5 mg/kg) or saline was injected into the center of the xenograft tumors twice per week for 3 consecutive weeks. (FIG. 5B) Representative images of tumors in xenografts transfected with LV-shTRDMT1/LV-NC with saline or Cisplatin treatment. (FIG. 5C) Tumor size of SKOV3 subcutaneous xenograft tumors (n=6, Mean±SD). (FIG. 5D) WB for TRDMT1 in tumor tissues collected from mice in each group (Tissues from six tumors in the same group were mixed into one sample). (FIG. 5E) IHC of TRDMT1 and KI-67 expression in ovarian cancer tissues of patients who were platinum-sensitive (PFS>6) and —resistant (PFS<6) Staining was assessed and scored on a scale of 0 (<5% staining) to 4 (>75% staining) in G. Quantification of IHC staining (n=38, PFS>6, n=24; PFS<6, n=14) was shown. […]
When mice developed palpable tumors (about a week after injection), cDDP (5 mg/kg) or saline were then injected into the center of the xenograft tumors twice per week for 3 consecutive weeks. […] PFS was calculated from the time of surgery to the time of progression or recurrence. […]

[2] = system: HST578, MBAMD231, HCC1937, HCC1954 cancer cells; experiment: Cell survival assay, TRDMT1i alone (Example 19); format: cell-based; conditions: HCC1954, HRD, high SYCP2
Description: FIGS. 14A-14C show TRDMT1i alone reduce cancer cell survival in a dose-dependent manner. (FIG. 14A) Survival rate of HR proficient (HR+) HST578 cancer cells with and without siBRCA1 and/or TRDMT1i YW-1842 at indicated dose. The survival rate of these cells was analyzed (n=3, Mean±SD). (FIG. 14B) Survival rate of MBAMD231 (HR+) and HCC1937 (HRD) cells. The survival rate of these cells was analyzed (n=3, Mean±SD). (FIG. 14C) Cell survival rate in different cancer cell lines via colony-forming assay with the treatment of Imatinib at indicated dose (n=3, mean+/−S.D.). Cell lines are listed in order with the expression level from SYCP2high to SYCP2low.
Cells were seeded in each 6-cm dish and cultured as described above. They were treated with drugs with indicated dose in medium after seeding. After 7-10 days, colonies were fixed and stained with 0.3% crystal violet in methanol, and the number of colonies was counted manually.

[3] = system: MD-MBA-231 xenograft tumors; experiment: MD-MBA-231 xenograft with PARPi; format: in vivo, BALB/c nude mice
Description: FIGS. 9A-9G show SYCP2 is required for efficient homologous recombination. (FIG. 9A) Cell survival rate of HeLa and MDAMB231 via colony forming assay with the treatment of […], 4 μm, 6 μM, 8 μM, 16 μM of Olaparib (n=3, mean+/−S.D.). Western blot of SYCP2 overexpression in HeLa and MDA-MB-231 is shown in the left. (FIG. 9B) Cell survival rate of HeLa via colony forming assay with the treatment of 1 μM, 2 μm, 3 μM of Olaparib (n=3, mean+/−S.D.). Western blot of SYCP2 knockdown in Hela is shown in the left. (FIG. 9C) Scheme of Xenograft design using intraperitoneal injection of MBA-MD-231 into successful developed mouse model with virus-associated SYCP2 knockdown and control groups is shown in the left. PARPi was injected every 2 days after day 7. The graph is shown the recorded tumor size of each tested group with PARPi treatment or saline at each treatment day. (FIG. 9D). Numbers of SYCP2 IR induced foci (IRIF) colocalizing with γH2AX in MDAMB231 and HeLa cells. Cells were fixed and counted for foci numbers after 2 Gy IR followed up indicated recovery time (t=0 hr, 12 hr, 24 hr, and 48 hr) (n=30, mean+/−S.D). (FIG. 9E). […] Fold increase of mean intensity at sites of irradiation compared to mean intensity of nucleus expression is quantified (n=5, mean+/−SD). […] Numbers of RAD51 IRIF in siCtrl and siSYCP2 treated MDAMB231 and U2OS cells after 2 Gy IR and 1 hour recovery were counted (n=20, +/SD). […]

[4] = system: ZR-75-30, MCF7, HCC-1954, HCC-1937, MDA-MB-468 and MDA-MB-231; experiment: Colony formation assay with Olaparib in six breast cancer cell lines; format: cell-based
Description: FIGS. 10A-10E show SYCP2 promotes RAD51 localization to DSBs independently of BRCA1. (FIG. 10A) The schematic mechanism of HR in the absence of BRCA1/2 for RAD51 loading with the help of SYCP2. RAD51 IRIF in BRCA1 mutant breast cancer cell lines after 2 Gy IR and 1 hour recovery with or without siSYCP2. Numbers of RAD51 foci per cell in siCtrl and siSYCP2 were quantified (n=20). The frameshift mutation of BRCA1 in cell line HCC1954 and HCC1937 is listed in the right. (FIG. 10B) The frequency of BRCA1 and SYCP2 IRIF colocalizing with γ-H2AX in U2OS cells after 2 Gy IR and recovery of 1 hour. Western blot of BRCA1 and SYCP2 knockdown and RAD51 expression level was shown in the left. (FIG. 10C) Comparison of SYCP2 RNA expression (CCLE database) in BRCA1/2 mutant and wildtype breast cancer cell lines. The analysis is normalized to Fragments Per Kilobase Million (FPKM). (FIG. 10D) Plot of correlation between SYCP2 expression and IC50 of Olaparib in groups of BRCA WT vs. mutant cells (left), high BRCA1 vs. low BRCA1 (right). p values and r values were determined by using Pearson correlated analysis. […]
Approximately 400 cells were replanted on 6-cm dishes 48 h after siRNA transfection. […] Colonies were stained with 0.3% crystal violet/methanol and counted 9 days after treatments. Each experiment was performed at least 3 times and the standard errors were calculated and indicated in the graphs. […]

breast tumors = experiment: Sacituzumab Govitecan (IMMU-132) clinical trial, outcome by SYCP2 IHC; format: in vivo; conditions: 16 patients
Text: FIGS. 13A-13D show high SYCP2 expression associates with poor prognosis and drug resistance in patients. (FIG. 13A). Summarization of subtypes of breast cancer patients in a Sacituzumab Govitecan (IMMU-132) clinical trial group. Patients were divided to high SYCP2 group and low SYCP2 group by IHC of SYCP2. IHC staining of SYCP2 expression in patient tumor tissues from the IMMU-132 clinical trial group. Representative images were shown. Cutoff value is median. Numbers of patients' response as Partial Response (PR) or Stable Disease (SD) in low SYCP2 group and high SYCP2 group in IMMU clinical trial are shown. (FIG. 13B) Kaplan-Meier curves of patients' overall survival and progression free survival in FIG. 13A. (FIG. 13C) Overall survival curves of 1095 patients from TCGA. Cutoff value is median. R value and p value were calculated by COX survival analysis. […]
The collected tumor specimens and adjacent normal tissue samples were fixed in 4% parafoiinaldehyde, stored in PBS. After sucrose infiltration, samples were filled with OTC and ready for cryosection. […] After deparaffinization and rehydration, sections were blocked and incubated with antibody against SYCP2 (PAS-67554, 1:20), Ki-67 (sc-23900, Santa Cruz, 1:200), and then detected using the Dako Envision two-step method of immunohistochemistry (Carpinteria, CA, USA). […] All IHC staining was scored independently by 2 pathologists. […]

## N.N.[Cl][Pt][Cl] [cisplatin]
[1]
  xenograft tumor size, Lv-shTRDMT1 tumors: grew statistically smaller

## O=C(c1cc(Cc2n[nH]c(=O)c3ccccc23)ccc1F)N1CCN(C(=O)C2CC2)CC1 [Olaparib]
[2]
  response of HCC1954 to PARPi: relatively resistant
[3]; siControl tumors, intraperitoneal, every 2 days after day 7, 23 days
  tumor growth, control tumors: reduced the growth of control tumors
[3]; siSYCP2 tumors versus control tumors
  tumor growth, SYCP2 knockout tumors: reduced the growth of SYCP2 knockout tumors more than control tumors
[4]; among four cell lines expressing high levels of SYCP2
  PARPi sensitivity, BRCA1 mutant versus non-mutant: more sensitive
[4]; among four cell lines without BRCA mutations
  PARPi sensitivity, low versus high SYCP2: much more sensitive

## Sacituzumab Govitecan
Breast tumors; SYCP2high versus SYCP2low by IHC
  response rate in patients with SYCP2high tumors: reduced rate of partial response (PR) but an increased rate of stable disease (SD)
Breast tumors; high SYCP2 expression
  survival in patients with high SYCP2 expression: shorter overall survival and progression-free survival
